Test results reported in article PMC13064039, “Exploring the binding interaction of rupatadine with bovine serum albumin using multi-spectroscopic and molecular modeling approaches” (BMC Chemistry, 2026).

What was measured:
[1] = molecular target: T1, bovine serum albumin (BSA) (Bos taurus, UniProt P02769); test: Competitive binding analysis using site probes (phenylbutazone site I, diazepam site II); conditions: site marker competition
Experimental: Phenylbutazone and diazepam are the site probes for sites Ⅰ and Ⅱ, respectively. The BSA and site probe concentrations in this experiment were maintained at 2 µM and 10 µM, respectively. Rupatadine concentrations ranged from 10 to 100 µM. After excitation at 279 nm, fluorescence intensity measurements were made at 341 nm. At 303 K, measurements were made.

[2] = molecular target: T1, bovine serum albumin (BSA); test: Synchronous fluorescence of BSA with RUPA; format: binding; conditions: RUPA 0-100 µM, BSA 2 µM, 303 K
From the text: Using synchronous fluorescence, the influence of the ligand on the protein has been thoroughly investigated. The distinctive details regarding the protein’s Tyr and Trp residues can be gained by fixing the scanning interval (∆λ) between the excitation and emission wavelengths at 15 and 60 nm, respectively.

[3] = molecular target: T1, bovine serum albumin (BSA); test: Fluorescence quenching of BSA by RUPA (Stern-Volmer, modified Stern-Volmer, van't Hoff analysis); format: binding; conditions: for Ksv (Stern-Volmer quenching constant): BSA 2 µM, RUPA 0-100 µM
Experimental: The fluorescence data were corrected for the inner filter effect (IFE) according to the Lakowicz method to ensure that the obtained binding parameters were not impacted by absorption artifacts.
To account for the possible influence of inner filter effects (IFE), the fluorescence intensities were corrected using the following formula (Eq. 1): 1
The process of fluorescence quenching was determined using the Stern-Volmer equation (Eq. 2): 2
The KSV and Kq values were determined by the graph of F0/F against [Q]
Stoichiometric analysis is used to define the various equilibria for a macromolecule’s binding of a ligand by binding sites (n). The number of binding sites (n) and the binding constant (Kb) were calculated using the modified Stern–Volmer equation (Eq. 3). 3
The thermodynamic characteristics of the binding reaction serve as the primary evidence for the binding force. Hydrogen bonds, hydrophobic forces, electrostatic interactions, van der Waals interactions, and other binding forces could all be present between small molecules and biomacromolecules. The temperature dependence of the binding constant was thus measured for this purpose at three distinct temperatures: 303, 310, and 318 K (Fig. 4).
The Gibbs–Helmholtz equation provided below was used to assess the free energy change (ΔG) value (Eq. 5).

[4] = molecular target: T1, bovine serum albumin (BSA); test: FT-IR spectroscopy of BSA with and without RUPA; conditions: BSA 2 µM + RUPA 40 µM, pH 7.4, 303 K; free BSA 1646
[5] = parameters: method as in PMID 23160091; conditions: cited from earlier work
[6] = tested on: ovarian cancer cells (platelet-activating factor receptor); parameters: method as in PMID 34571986; conditions: in vitro; targets the platelet-activating factor receptor; cited from earlier work

T1 sequence (P02769 25-607): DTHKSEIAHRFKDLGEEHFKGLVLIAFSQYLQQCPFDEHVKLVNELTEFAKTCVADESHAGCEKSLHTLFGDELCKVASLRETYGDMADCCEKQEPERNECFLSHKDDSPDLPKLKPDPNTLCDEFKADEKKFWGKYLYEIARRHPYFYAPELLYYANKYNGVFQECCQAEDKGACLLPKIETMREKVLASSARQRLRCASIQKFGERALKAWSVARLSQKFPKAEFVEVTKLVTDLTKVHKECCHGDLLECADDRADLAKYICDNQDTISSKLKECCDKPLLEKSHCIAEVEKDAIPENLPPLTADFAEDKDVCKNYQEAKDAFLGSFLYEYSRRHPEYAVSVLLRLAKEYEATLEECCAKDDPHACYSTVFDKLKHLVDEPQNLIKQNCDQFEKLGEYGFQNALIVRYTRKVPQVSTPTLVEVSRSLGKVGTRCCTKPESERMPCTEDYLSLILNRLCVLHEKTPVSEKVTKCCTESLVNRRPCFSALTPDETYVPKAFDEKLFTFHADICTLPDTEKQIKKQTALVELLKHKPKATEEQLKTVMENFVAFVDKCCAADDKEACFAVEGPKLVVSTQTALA

In the case of Cc1cncc(CN2CCC(=C3c4ccc(Cl)cc4CCc4cccnc43)CC2)c1 [RUPA, 13-chloro-2-[1-[(5-methylpyridin-3-yl)methyl]piperidin-4-ylidene]−4-azatricyclo [9.4.0.03,8] pentadeca-1(11),3(8),4,6,12,14-hexaene], the “binding site of RUPA on BSA” value [1] is reported as “site I”, the “shift in synchronous fluorescence” value ([2]; ∆λ = 15 nm (Tyr)) is reported as “no shift” and the “red shift of ∆λmax in synchronous fluorescence” value ([2]; ∆λ = 60 nm (Trp)) is reported as “about 2 nm”. The “n (number of binding sites)” value ([3]; 303 K) was 0.57, the “Ksv (Stern-Volmer quenching constant)” value ([3]; 303 K, pH 7.4) was 1.07 × 10^4 L.mol^− 1 and the “n (number of binding sites)” value ([3]; 310 K) was 0.83. For the same compound, the “Ksv (Stern-Volmer quenching constant)” value ([3]; 310 K, pH 7.4) was 0.82 × 10^4 L.mol^− 1, the “Kq (quenching rate constant)” value ([3]; 310 K, τ0 = 10^-8 s) was 0.82 × 10^12 L.mol^− 1.s^− 1 and the “n (number of binding sites)” value ([3]; 318 K) was 1.06. The “Ksv (Stern-Volmer quenching constant)” value ([3]; 318 K, pH 7.4) was 0.48 × 10^4 L.mol^− 1, the “∆G^o (Gibbs free energy change)” value ([3]; pH 7.4, 303 K) was -14.570 kJ/mol and the “∆G^o (Gibbs free energy change)” value ([3]; pH 7.4, 318 K) was -21.877 kJ/mol. For the same compound, the “∆H^o (enthalpy change)” value ([3]; pH 7.4, van't Hoff, 303-318 K) was 133.024 kJ/mol, the “∆S^o (entropy change)” value ([3]; pH 7.4, van't Hoff, 303-318 K) was 0.487 KJ mol^− 1 K^− 1 and the “enthalpy change (ΔH)” value ([3]; within the examined temperature range) was 133.024 kJ mol^− 1. The “amide I peak location of BSA following the RUPA reaction” value [4] was 1642 cm^− 1, the “attached to plasma proteins” value [5] was “approximately 99%” and the “effect on ovarian cancer cell proliferation and migration” value [6] was “prevent ovarian cancer cells from proliferating and migrating”.
